Data set [1] relates to OCI-AML3 and Molm13 AML lines. As to the kind of experiment: CD70 surface expression after incubation with AZA (flow cytometry), AML lines. It counts as cell-based, human. The text has this: (§1) The following antibody clones targeting their respective antigens were used for flow cytometric analysis where indicated: CD70 (113-16, Biolegend), PeCy7 isotype (MOPC-21, Biolegend), CD69 (FN50, Biolegend), CD107a (H4A3, Biolegend), mouse TER-119 (TER-119, Biolegend), mouse NK-1.1 (PK136, Biolegend), mouse Ly-6G/Ly-6C (Gr-1, Biolegend), mouse CD11b (Biolegend). In general, cells were stained for fifteen minutes in the dark at 4 degrees Celsius and washed in PBS with 2% FBS. When used, DAPI was added to establish live versus dead separation. Trucount tubes (BD Biosciences, 340334) were used for murine blood CAR quantification according to kit instructions. Quantum Simply Cellular beads (Bangs Laboratories, 815) were used to quantify CD70 surface expression.
(In general: In flow cytometry, cells or beads pass a laser one at a time.)

Data set [2] relates to Molm13. In words: CD70 and CD33 expression on AML in vivo after AZA (femur aspirates, flow cytometry). The settings on record: five days of AZA IP. Set-up: species or system NSG mice.
Description: as §1
4.3.1 was used for analysis.
Femur aspirates were analyzed for tumor cells and their CD70 expression via flow cytometry (FIG. 4C). CD70 expression level was compared to isotype controls for each mouse.

Data set [3] concerns CD70 CAR-T cells. As to the kind of experiment: AZA exposure of CD70 CAR-T cells: cell number and viability. It counts as cell-based, human. The settings on record: increasing concentrations of AZA, 24 hours, IL-2.
Data set [4] concerns solid tumor cell lines as well as primary AML blasts. The conditions noted are these: hypomethylation of the CD70 promoter; cited from earlier work.
In data set [5] the test system is Molm13. As to the kind of experiment: Real-time cytotoxicity assay (impedance) after AZA incubation of CAR-T cells. It counts as cell-based, human. The conditions noted are these: CAR-T cells treated in 1 μM AZA, after 96 hours. Here is the method: Cell index was recorded as a measure of impedance using the xCELLigence RTCA SP instrument (ACEA biosciences). […] 125,000 Molm13 cells per well were then plated for 28 hours followed by administration of 125,000 CAR-T cells. Cell index was tracked for 96 hours.

For data set [6], the system named is CD70 CAR-T cells. As to the kind of experiment: Plate bound antigen activation assay after AZA incubation. Format: cell-based, human. The settings on record: 100 μM AZA (supratherapeutic), 24 hours, washed, plate-bound CD70 overnight. Here is the method: After washing in PBS, trD27 or CAR T cells were added for 12 hours followed by flow cytometric staining for CD69.

Data set [7] relates to CD70 CAR-T cells. As to the kind of experiment: T-cell subset and activation/exhaustion markers under AZA, co-culture with Molm13. The settings on record: highest concentrations of AZA.
Data set [8] has as its system Molm13. As to the kind of experiment: Aggressive Molm13 AML xenograft, azacitidine with CD70 CAR-T cells.
Description: For IHC, murine femurs were washed in PBS and then incubated overnight in 4% paraformaldehyde (PF Thermo-Fisher Scientific AAJ19943K2), followed by an overnight incubation in Cal-ex decalcifier (Fisher Scientific, CS510-1D) and then storage in 70% ethanol until staining. Antibody clones for IHC included the following: CD3 (2GV6, Roche) and CD45 (D9M81, Cell Signaling Technology).
NOD-SCID-γ chain−/− (NSG) (Jackson Laboratories) mice were engrafted with Molm13 cell lines as described for the individual experiments. Mice were maintained at the MGH Center for Cancer Research and all care and conducted experiments were carried out using protocols approved by the Massachusetts General Hospital Institutional Animal Care and Use Committee. […] Cryopreserved CD70 CAR T cells or untransduced T cells were injected intravenously via tail vein at the indicated time points. Tumor burden was monitored via bioluminescence following intraperitoneal injection of D-luciferin substrate solution. AMI spectral imaging was used to perform the image capture and IDL software v. 4.3.1 was used for analysis. Animals were euthanized per the experimental protocol or when they met a priori defined endpoints by IACUC.
A complementary technique was used to verify tumor burden and CAR-T cell expansion. […] To determine if these were cancer cells or infiltrating CAR-T cells, human CD3 was stained.

Turning to `Nc1ncn([C@@H]2O[C@H](CO)[C@@H](O)[C@H]2O)c(=O)n1` [AZA, azacitidine], the CD70 expression result in data set [1] (10 μM AZA, FIG. 15, cell line not named) is “bulk increase in CD70 expression”. In data set [1] (incubated with AZA for 20 and 44 hours), the CD70 expression entry was “increase in CD70 expression at higher concentrations”. In addition, in the data set on Molm13 [2], the “increase in myeloid marker CD33” value is “not observed”. Further, in the data set with CD70 CAR-T cells [3], the “number of CAR-T cells surviving” value is recorded as “same number of CAR-T cells survived” and the “viability of CAR-T cells” value is recorded as “preserved across all conditions”. Further, in data set [4], the CD70 surface expression result is “increased CD70 surface expression”. Further, the “CAR-T cytotoxicity vs control” value in the data set with Molm13 [5] is given as “no statistically significant difference from control”. Further, the “CAR-T cell activation (CD69) compared to control” value with CD70 CAR-T cells [6] is “significant reduction in activation”. For the same compound, in the data set on CD70 CAR-T cells [7], the PD-1 entry was “decreases”, the “Tim 3” value is recorded as “decreases” and the effector memory phenotypes entry is reported as “increase in effector memory phenotypes”. Also, in the data set with Molm13 [8] (AZA 2.5 mg/kg/day IP day +18 for 5 days, T cells day +22), the “treatment effect / tumor control (BLI)” value is recorded as “slight treatment effect”. For the same compound, the “human CD45 staining of bones (immunohistochemistry)” value with Molm13 [8] (femurs at sacrifice) is “abundant human CD45 staining”.
